molecular target: T1, HIV protease (Human immunodeficiency virus type 1 group M subtype B, UniProt P04585); assay: HIV Protease Assay; format: biochemical; conditions: 10 μM inhibitor, 4% DMSO, 450 μM substrate, pH 5.5, 30 minutes at 37° C., RP-HPLC
T1 construct: and purified protease
Protocol: An HIV protease standard assay was performed in a 60 μl reaction medium containing 50 mM sodium acetate, pH 5.5, 100 μg/ml bovine serum albumen,450 μM substrate (H2 N-Val-Ser-Gln-Asn-(β-naphthyl-alanine)-Pro-Val-Ile-OH), and purified protease. The reaction medium was incubated for 30 minutes at 37° C., quenched by the addition of 140 μl 5% H3 PO4, then analyzed by reverse phase HPLC using UV220 detection. In a typical control assay, 7% of the substrate was hydrolyzed. Aminediol inhibitors of the present invention, listed in the following Table 1, were then employed in the assay, for which purpose they were prepared as a […] solution in DMSO, then diluted to 30 μM with 50 mM sodium acetate/bovine serum albumen. This working stock was then diluted three-fold into the protease reaction medium, for a final concentration of 10 μM inhibitor and 4% DMSO.

SMILES	HIV Protease % Inhibition at 10 μM [%]
COC(=O)NC(C)(C(=O)N[C@@H](Cc1ccccc1)[C@H](O)CNC[C@@H](O)[C@H](Cc1ccccc1)NC(=O)OC(C)(C)C)C(C)(C)C (single isomer, unassigned; isomer a) [Compound 373]	85
CC(C)(CO)OC(=O)N[C@@H](Cc1ccccc1)[C@H](O)CNC[C@@H](O)[C@H](Cc1ccccc1)NC(=O)C1(O)CCCC1(C)C (single isomer, unassigned; isomer b) [Compound 369, [1S-[1R*,2S*(2S*,3R*)]]-[r3-[[3-[[(2,2-Dimethyl-1-hydroxycyclopentyl)-carbonyl]amino]-2-hydroxy-4-phenylbutyl]amino]-2-hydroxy-1-(phenylmethyl)propyl]carbamic acid, 2-hydroxy-1,1-dimethylethyl ester. isomer B]	96
CC(C)(C)OC(=O)N[C@@H](Cc1ccccc1)[C@H](O)CNC[C@@H](O)[C@H](Cc1ccccc1)NC(=O)C1(O)CCCCC1(C)C (single isomer, unassigned; isomer b) [Compound 362, [1S-[1R*,2S*(2S*,3R*)]]-[3-[[3-[[2,2-Dimethyl-1-hydroxycyclohexyl)carbonyl]amino]-2-hydroxy-4-phenylbutyl]amino]-2-hydroxy-1-(phenylmethyl) propyl]carbamic acid, 1,1-dimethylethyl ester, isomer B]	98
CNC(=O)C(O)(C(=O)N[C@@H](Cc1ccccc1)[C@H](O)CNC[C@@H](O)[C@H](Cc1ccccc1)NC(=O)OC(C)(C)C)C(C)(C)C (single isomer, unassigned; isomer b) [Compound 385, [1S-[1R*,2S*(2S*, 3R*)]]-[3-[[3-[[2-Hydroxy-3,3-dimethyl-2-[(methylamino)carbonyl]-1-oxobutyl]amino]-2-hydroxy-4-phenylbutyl]amino]-2-hydroxy-1-(phenylmethyl)propyl]carbamic acid, 1,1-dimethylethyl ester, isomer B]	99
CC(C)(C)OC(=O)N[C@@H](Cc1ccccc1)[C@H](O)CNC[C@@H](O)[C@H](Cc1ccccc1)NC(=O)C(C)(O)c1ccccn1 (single isomer, unassigned; isomer a) [Compound 381, [1S-[1R*,2S*(2S*, 3R*)]]-[2-Hydroxy-3-[[2-hydroxy-3-[[2-hydroxy-1-oxo-2-(2-pyridinyl)propyl]amino]-4-phenylbutyl]amino]-1-(phenylmethyl)propyl]carbamic acid, 1.1-dimethylethyl ester, isomer A]	60
CC(C)(C)OC(=O)N[C@@H](Cc1ccccc1)[C@H](O)CNC[C@@H](O)[C@H](Cc1ccccc1)NC(=O)OC1c2ccccc2CC1O (stereo partly drawn) [Compound 215, [1S-(1R*,2S*)(trans)]-[Iminobis[2-hydroxy-1-(phenylmethyl)-3,1-propanediyl)]biscarbamic acid, 1,1-dimethylethyl 2,3-dihydro-2-hydroxy-1H-inden-1-yl ester]	66

same assay, conditions: pH 5.5, 10 μM inhibitor, 4% DMSO, 450 μM substrate, pH 5.5, 30 minutes at 37° C., RP-HPLC; read-out: HIV Protease % Inhibition at 10 μM

SMILES	inhibition at 10 µM [%]
CC(C)(C)OC(=O)N[C@@H](Cc1ccccc1)[C@H](O)CNC[C@@H](O)[C@H](Cc1ccccc1)NC(=O)COc1cccc2ccccc12 [Compound 63, [1S-[1R*,2S*(2S*,3R*)]]-[2-Hydroxy-3-[[2-hydroxy-3-[[(1-naphthalenyloxy)-acetyl]amino]-4-phenylbutyl]amino]-1-(phenyl-methyl)propyl]carbamic acid, 1,1-dimethylethyl ester]	53
CC(C)(C)OC(=O)N1CCC[C@H]1C(O)CNCC(O)[C@@H]1CCCN1C(=O)OC(C)(C)C (single isomer, unassigned) [Compound 7]	8
CC(C)(C)OC(=O)N[C@@H](Cc1ccccc1)[C@@H](O)CNCC(O)[C@@H](Cc1ccccc1)NC(=O)OC(C)(C)C (stereo partly drawn) [Compound 27, [1S-[1R*,2R*(3S*)]]-[3-[[3-[[(1,1-Dimethylethoxy)carbonyl]amino]-2-hydroxy-4-phenylbutyl]amino]-2-hydroxy-1-(phenylmethyl)propyl]-carbamic acid 1,1-dimethylethyl ester]	19
C=Cc1ccccc1C[C@H](NC(=O)OC(C)(C)C)[C@H](O)CNC[C@@H](O)[C@H](Cc1ccccc1)NC(=O)OC(C)(C)C [Compound 370, [1S-[1R*,2S*(2S*, 3R*)]]-[3-[[3-[[(1,1-Dimethylethoxy)carbonyl]amino]-2-hydroxy-4-(2-ethenylphenyl)butyl]amino]-2-hydroxy-1-(phenylmethyl)propxyl]carbamic acid, 1.1-dimethylethyl ester]	96
CC(C)(C)OC(=O)N[C@@H](Cc1ccccc1)[C@H](O)CNC[C@@H](O)[C@H](Cc1ccccc1)NC(=O)[C@@H](O)c1ccccc1 [Compound 378, [1S-[1R*,2S*[2S*, 3R*(R*)]]]-[3-[[3-[2-Hydroxy-1-oxo-2-phenylethyl)amino]-2-hydroxy-4-phenylbutyl]amino]-2-hydroxy-1-(phenylmethyl)propyl]carbamic acid, 1-dimethylethyl ester]	27
CC(C)(C)OC(=O)N[C@@H](Cc1ccccc1)[C@H](O)CNC[C@@H](O)[C@H](Cc1ccccc1)NC(=O)CC(O)CO (stereo partly drawn) [Compound 255, [1S-[1R*,2S*(2S*,3R*)]]-[3-[[3-[(3,4-Dihydroxy-1-oxo-butyl)amino]-2-hydroxy-4-phenylbutyl]amino]-2-hydroxy-1-(phenylmethyl)propyl]carbamic acid, 1,1-dimethylethyl ester]	86
CC(C)(C)OC(=O)N[C@@H](Cc1ccccc1)[C@H](O)CNC[C@@H](O)[C@H](Cc1ccccc1)NC(=O)OCc1ncc[nH]1 [Compound 268, [R-(R*,S*)]-[Iminobis[2-hydroxy-1-(phenylmethyl)-3,1-propanediyl)]biscarbamic acid, (1H-imidazol-2-yl)-methyl 1,1-dimethylethyl ester]	94
CC(C)(C)OC(=O)NCC(O)[C@H](Cc1ccccc1)NC[C@@H](O)[C@H](Cc1ccccc1)NC(=O)OC(C)(C)C (mixture of isomers) [Compound 188, [3S-[3R*(2S*,3R*)]]-[3-[[3-[[(1,1-Dimethylethoxy)carbonyl]amino]-2-hydroxy-4-phenyl-butyl]amino]-2-hydroxy-4-phenylbutyl]carbamic acid, 1,1-dimethylethyl ester, 2:1 diastereomer mixture]	21
CC(C)(C)OC(=O)N[C@@H](Cc1ccccc1)[C@H](O)CNC[C@@H](O)[C@H](Cc1ccccc1)NC(=O)NCc1ccccc1 (relative stereo) [Compound 57, [1R*,2S*(2S*,3R*)]-[2-Hydroxy-3[[2-hydroxy-4-phenyl-3-[[[(phenylmethyl)amino]-carbonyl]amino]butyl]amino]-1-(phenylmethyl)-propyl]carbamic acid, 1,1-dimethylethyl ester]	46
CC(C)(C)OC(=O)N[C@@H](Cc1ccccc1)[C@H](O)CNC[C@@H](O)[C@H](Cc1ccccc1)NC(=O)C(C)(C)C [Compound 269, [1S-[1R*,2S*(2S*,3R*)]]-[3-[[3-[(2,2-Dimethyl-1-oxo-propyl)amino]-2-hydroxy-4-phenylbutyl]amino]-2-hydroxy-1-(phenylmethyl)propyl]carbamic acid, 1,1-dimethylethyl ester]	61
CC(C)(C)OC(=O)N[C@@H](Cc1ccccc1)[C@H](O)CNC[C@@H](O)[C@H](Cc1ccccc1)NC(=O)OC1(C)CCCC1O (stereo partly drawn) [Compound 379, [1S-(1R*,2S*) (trans)]-[Iminobis[2-hydroxy-1-(phenylmethyl)-3,1-propanediyl]]bis[carbamic acid], 1,1-dimethylethyl 2-hydroxy-1-methylcyclopentyl ester]	98
CC(C)(C)OC(=O)N[C@@H](Cc1ccccc1)[C@H](O)CNC[C@@H](O)[C@H](Cc1ccccc1)NC(=O)C(C)(C)CCO [Compound 291, [1S-[1R*,2S*(2S*,3R*)]]-[2-Hydroxy-3-[[2-hydroxy-3-[(4-hydroxy-2,2-dimethyl-1-oxobutyl)amino]-4-phenylbutyl]amino]-1-(phenylmethyl)propyl]carbamic acid, 1,1-dimethylethyl ester]	73
CC(C)(C)OC(=O)NC[C@@H](O)[C@@H](Cc1ccccc1)NC[C@@H](O)[C@H](Cc1ccccc1)NC(=O)OC(C)(C)C [Compound 190, [2R-[2R*,3R*(2R*,3S*)]]-[3-[[3-[[(1,1-Dimethylethoxy)carbonyl]amino]-2-hydroxy-4-phenyl-butyl]amino]-2-hydroxy-4-phenylbutyl]carbamic acid, 1,1-dimethylethyl ester]	< 16
CC(C)(C)OC(=O)N1Cc2ccccc2C[C@H]1[C@H](O)CNC[C@H](O)[C@@H]1Cc2ccccc2CN1C(=O)OC(C)(C)C [Compound 12, [S-(R*,R*)]-3-[2-[[[-(R*,S*)]-2-[2-[(1,1-Dimethylethoxy)carbonyl]-1,2,3,4-tetrahydro-3-isoquinolinyl]-2-hydroxyethyl]amino]-1-hydroxyethyl]-3,4-dihydro-2(1H)-isoquinolinecarboxylic acid, (1,1-dimethylethyl) ester]	1

same assay, conditions: pH 5.5, read-out: HIV Protease % Inhibition at 10 μM

SMILES	inhibition at 10 µM [%]
CN(C)C(=O)OCCOc1ccc(C[C@H](NC(=O)OC(C)(C)C)[C@H](O)CNC[C@@H](O)[C@H](Cc2ccccc2)NC(=O)OC(C)(C)C)cc1 [Compound 372, [1S-[1R*,2S*(2S*, 3R*)[[-]3-]]4-]4-[2-[[(Dimethylamino)carbonyl]oxy]ethoxyl]phenyl]-3-[[(1,1-dimethylethoxy)carbonyl]amino]-2-hydroxybutyl]amino]-2-hydroxy-1-(phenylmethyl) propyl]carbamic acid]	98

— US5760036A, “Aminediol protease inhibitors” (E. R. Squibb & Sons, Inc., priority 1995, dated 1998)
